Measured values from ChEMBL document CHEMBL1833851, “Design, synthesis and X-ray crystallographic study of new nonsecosteroidal vitamin D receptor ligands” (Bioorg Med Chem Lett, 2011).

Target: T1, Vitamin D3 receptor (Homo sapiens, UniProt P11473)
T1 sequence (P11473 whole entry): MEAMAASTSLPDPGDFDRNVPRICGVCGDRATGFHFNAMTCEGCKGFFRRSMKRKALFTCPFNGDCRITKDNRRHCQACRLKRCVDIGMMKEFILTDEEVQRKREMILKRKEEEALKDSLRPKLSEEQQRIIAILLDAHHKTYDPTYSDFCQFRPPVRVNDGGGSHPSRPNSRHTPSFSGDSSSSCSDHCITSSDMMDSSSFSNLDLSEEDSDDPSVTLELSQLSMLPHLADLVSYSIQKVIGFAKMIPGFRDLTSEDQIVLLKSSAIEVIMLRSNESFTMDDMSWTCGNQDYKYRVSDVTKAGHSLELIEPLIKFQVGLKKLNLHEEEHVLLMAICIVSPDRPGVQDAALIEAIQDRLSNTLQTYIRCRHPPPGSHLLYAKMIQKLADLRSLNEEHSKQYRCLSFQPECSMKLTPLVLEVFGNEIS
Test: Activity at human VDR expressed in human HOS cells transfected with pGL3-hOc, pCDNA-hVDR and phRL-TK assessed as assessed as transcriptional activation measured 24 hrs post […] by luciferase reporter gene assay
Assay type: cell-based

Q: For `CCC(CC)(c1ccc(OC[C@H](O)C(C)(C)C)c(C)c1)c1ccc(OC(CCO)CCO)c(C)c1`, which EC50 is on record?
A: 19.4 nM

Q: With `CCC(CC)(c1ccc(OCC(CO)CO)c(C)c1)c1ccc(OC[C@H](O)C(C)(C)C)c(C)c1` as the compound, how does the EC50 read?
A: 1.11 nM

Q: For `CCC(CC)(c1ccc(OC[C@H](O)C(C)(C)C)c(C)c1)c1ccc(O[C@@H](CO)[C@@H](O)CO)c(C)c1`, which EC50 is on record?
A: 0.92 nM

Q: Which EC50 does the source give for `CCC(CC)(c1ccc(OC[C@H](O)C(C)(C)C)c(C)c1)c1ccc(O[C@H](CO)[C@H](O)CO)c(C)c1` here?
A: 1.25 nM

Q: `CCC(CC)(c1ccc(OC[C@H](O)C(C)(C)C)c(C)c1)c1ccc(O[C@@H](CO)CCO)c(C)c1` was tested. Which EC50 did it give?
A: 0.06 nM

Q: For `CCC(CC)(c1ccc(OC[C@H](O)C(C)(C)C)c(C)c1)c1ccc(O[C@H](CO)CCO)c(C)c1`, which EC50 is on record?
A: 1.29 nM
